The text below walks through data of publication PMC11719397, “Monophthalates of betulinic acid and related pentacyclic triterpenes inhibit efficiently the SOS-mediated nucleotide exchange and impact PI3K/AKT signaling in oncogenic K-RAS4B proteins” (RSC Advances, 2025).

Converted amounts (≈) assume the structure as drawn.

Data set [1] concerns the target (GTP)K-RAS4B^wt:SOS1 complex (Homo sapiens, UniProt P01116+Q07889). The data set can be described thus: HTRF K-RAS^wt:SOS protein-protein interaction assay. For orientation: TR-FRET usually uses a lanthanide donor and a delayed reading to cut background.
Experimental: The interaction of (GTP)K-RAS4B^wt and SOS was measured with a HTRF assay using an SOS-specific antibody labeled with terbium cryptate as HTRF (homogeneous time-resolved fluorescence) donor and a K-RAS4B^wt specific antibody labeled with an HTRF acceptor (XL665).[52]
To test the compounds effect on the interaction of K-RAS and SOS1 proteins a commercial assay from Revvity (product code 64[sequence]) was used. The K-RAS WT/SOS1 PPI assay includes tagged human recombinant partners (K-RAS WT and SOS1) and labelled anti-tag reagents for HTRF detection. Without an inhibitor, K-RAS WT loaded with GTP binds to SOS1, and the binding of each detection reagent to its tagged target generates an HTRF signal. In the presence of K-RAS WT/SOS1 inhibitors or GTP competitors, the HTRF signal decreases.
After an incubation step for 10 min at room temperature 3 μL Tag1-KRAS protein was added followed by 7.5 μL detection mix containing anti-Tag2 antibody labeled with Terbium cryptate and anti-Tag1 antibody labeled with XL665. […] IC50 values were determined from the sigmoidal dose response curves with the Scigilian Analyze software (Scigilian, Monteral, Canada).
The next data set has as its target K-RAS4B wild-type (Homo sapiens, UniProt P01116). The data set can be described thus: Nucleotide exchange assay (SOS1-mediated GDP/GTP exchange, GDP-Glo), K-RAS4B wild-type. In kind it is biochemical. Particulars: K-RAS4B GDP/GTP exchange; eight data points, at least three determinations; (*) single determination.
Data set [2] addresses T1, K-RAS4B^G12D (Homo sapiens, UniProt P01116, G12D). Briefly: cell-based. Particulars: live cells; displacement of BI2852 from the K-Ras4B SI/II binding-site; read-out: K-RAS4B^G12D NanoBRET TE KD. Details: a fusion protein of LgBiT and full-length RAS; a fusion protein of SmBiT(q) and full-length RAS in cells; expressed in transfected cells; host or cells: HEK239T (so in the source). The source says: To obtain further information on the mode of action, selected GDP/GTP exchange inhibitors were studied in additional assays (Table 3). A target engagement assay, which is based on bioluminescence resonance energy transfer (BRET), was used to measure target engagement at protein complexes in live cells (Fig. 5a). The BRET effect results from an energy transfer between the target luciferase fusion protein and a cell-permeable fluorescent tracer in intact cells.
Fig. 5 Schematic illustrations of the RAS cellular target engagement and RAS:SOS protein–protein interaction assay. (a) NanoBRET target engagement (TE) assay: when the fusion proteins LgBiT-RAS and SmBiT(q)-RAS interact in live-cells, they form an active luciferase as a BRET donor. The BRET receptor is a fluorescent NanoBRET® tracer that binds specifically to K-RAS. K-RAS binders displace the tracer and reduce the BRET signal in a dose-dependent manner.
The NanoBRET® TE Intracellular RAS Assay uses NanoBiT® Technology, a structural complementation system comprised of a large luciferase subunit (LgBiT) and a small complementary peptide (SmBiT(q)). Specifically, a fusion protein of LgBiT and full-length RAS is co-expressed with a fusion protein of SmBiT(q) and full-length RAS in cells. When the RAS proteins interact and form multimers, the LgBiT and SmBiT(q) subunits come together to form an active luciferase enzyme that serves as the BRET donor. The energy acceptor is a cell-permeable fluorescent NanoBRET® tracer that binds specifically to RAS. […] After mixing the plate for 1 min and incubation at room temperature for 15 min 1 μL of NanoBRET TE RAS Tracer 01 (final concentration 1 μM) was added followed by another mixing step. After 2 h incubation (37 °C, 5% CO2) and 15 min at room temperature 5 μL of NanoBRET™ Nano-Glo® substrate was added followed by a mixing step.
Target sequence in this assay (P01116 1-188 isoform P01116-2 G12D): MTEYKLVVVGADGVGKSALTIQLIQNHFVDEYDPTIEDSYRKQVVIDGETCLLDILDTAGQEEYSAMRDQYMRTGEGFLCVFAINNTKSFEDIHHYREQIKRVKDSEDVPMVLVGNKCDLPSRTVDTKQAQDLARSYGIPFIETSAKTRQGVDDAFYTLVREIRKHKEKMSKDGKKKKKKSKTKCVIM
Target sequence in this assay (P01116 1-188 isoform P01116-2 G12D): as above
For orientation: In BRET a luciferase serves as donor, and the signal depends on an acceptor being close.

Data set [3] has as its target T1, K-RAS4B^G12D. The data set can be described thus: biochemical. Particulars: K-RAS4B GDP/GTP exchange; eight data points, at least three determinations.
Target sequence in this assay (P01116 1-188 isoform P01116-2 G12D): as above
Another data set addresses K-RAS4B G12V (Homo sapiens, UniProt P01116, G12V). The data set can be described thus: Nucleotide exchange assay (SOS1-mediated GDP/GTP exchange, GDP-Glo), K-RAS4B G12V. The data set is classed as biochemical. To be noted: eight data points, at least three determinations, (*) single determination.

(GTP)K-RAS4B^wt:SOS1 complex, sequence (P01116 1-188 isoform P01116-2): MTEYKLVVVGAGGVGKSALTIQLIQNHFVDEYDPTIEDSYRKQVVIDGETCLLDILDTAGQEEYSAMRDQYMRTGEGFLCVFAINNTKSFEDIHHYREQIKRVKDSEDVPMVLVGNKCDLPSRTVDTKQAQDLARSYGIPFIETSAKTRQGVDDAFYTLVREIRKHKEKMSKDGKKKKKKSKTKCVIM
(GTP)K-RAS4B^wt:SOS1 complex, sequence (Q07889 564-1049 limits assumed): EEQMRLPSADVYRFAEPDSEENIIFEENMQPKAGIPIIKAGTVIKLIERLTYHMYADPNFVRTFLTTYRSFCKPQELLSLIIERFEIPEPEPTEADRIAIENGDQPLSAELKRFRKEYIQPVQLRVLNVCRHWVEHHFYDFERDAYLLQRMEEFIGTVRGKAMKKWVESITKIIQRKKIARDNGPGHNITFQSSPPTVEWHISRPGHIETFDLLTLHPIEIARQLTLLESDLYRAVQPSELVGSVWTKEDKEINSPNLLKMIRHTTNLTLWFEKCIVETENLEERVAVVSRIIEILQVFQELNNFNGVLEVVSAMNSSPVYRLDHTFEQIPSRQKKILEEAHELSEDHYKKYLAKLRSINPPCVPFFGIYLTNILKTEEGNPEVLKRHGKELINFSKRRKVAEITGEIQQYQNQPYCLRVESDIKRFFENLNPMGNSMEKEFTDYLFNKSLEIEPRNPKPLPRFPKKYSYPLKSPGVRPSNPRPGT
K-RAS4B wild-type, sequence (P01116 1-188 isoform P01116-2): as the sequence (P01116 1-188 isoform P01116-2) above
K-RAS4B G12V, sequence (P01116 1-188 isoform P01116-2 G12V): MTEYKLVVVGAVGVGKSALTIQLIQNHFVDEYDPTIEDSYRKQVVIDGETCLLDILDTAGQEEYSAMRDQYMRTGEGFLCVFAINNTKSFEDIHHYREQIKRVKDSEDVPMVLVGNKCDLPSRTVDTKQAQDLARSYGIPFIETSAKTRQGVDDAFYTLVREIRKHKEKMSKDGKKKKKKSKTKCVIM

With `C=C(C)[C@@H]1CC[C@]2(COC(=O)CCC(=O)O)CC[C@]3(C)[C@H](CC[C@@H]4[C@@]5(C)CC[C@H](OC(=O)c6c(F)ccc(F)c6C(=O)O)C(C)(C)[C@@H]5CC[C@]43C)[C@@H]12` [Compound 33], the Kd stood at 37400 nM in data set [1] and 26400 nM on K-RAS4B^G12D [2]. In addition, the IC50 against K-RAS4B wild-type was found to be 2090 ± 590 nM; at K-RAS4B^G12D [3], 1450 ± 930 nM; on K-RAS4B G12V, 2130 ± 870 nM. Further, in the data set “Solubility”, the solubility was 416 µM (≈ 302 µg/mL).
`C=C(C)[C@@H]1CC[C@]2(COC(=O)CCC(=O)O)CC[C@]3(C)[C@H](CC[C@@H]4[C@@]5(C)CC[C@H](OC(=O)c6cc(F)c(F)cc6C(=O)O)C(C)(C)[C@@H]5CC[C@]43C)[C@@H]12` [Compound 34]: the dissociation constant (Kd) (in data set [1]; at K-RAS4B^G12D [2]) was more than 100000 nM each time. The IC50 came to 1180 ± 20 nM on K-RAS4B wild-type, 660 ± 130 nM against K-RAS4B^G12D [3] and 2850 ± 140 nM at K-RAS4B G12V. Besides, in the data set “Solubility”, the solubility stood at 410 µM (≈ 298 µg/mL).
For `C[C@H]1[C@H](C)CC[C@]2(C(=O)O)CC[C@]3(C)C(=CC[C@@H]4[C@@]5(C)CC[C@H](OC(=O)c6c(F)ccc(F)c6C(=O)O)C(C)(C)[C@@H]5CC[C@]43C)[C@H]12` [Compound 36], the Kd (in data set [1]; at K-RAS4B^G12D [2]) was more than 50000 nM in each case. Besides, the IC50 against K-RAS4B wild-type amounted to 3460 ± 1940 nM; on K-RAS4B^G12D [3], 2640 ± 1750 nM; against K-RAS4B G12V, 2520 ± 990 nM. The solubility in “Solubility” was found to be 424 µM (≈ 272 µg/mL).
As for `C[C@H]1[C@H](C)CC[C@]2(C(=O)O)CC[C@]3(C)C(=CC[C@@H]4[C@@]5(C)CC[C@H](OC(=O)c6cc(F)c(F)cc6C(=O)O)C(C)(C)[C@@H]5CC[C@]43C)[C@H]12` [Compound 37], the dissociation constant (Kd) in data set [1] was more than 50000 nM; on K-RAS4B^G12D [2], 16600 nM. The values for the IC50 against K-RAS4B wild-type, on K-RAS4B^G12D [3] and at K-RAS4B G12V were 3940 ± 1020 nM, 2530 ± 630 nM and 2150 ± 310 nM, respectively. Further, the solubility in “Solubility” came out at 220 µM (≈ 141 µg/mL).

The term Kd denotes the equilibrium constant for the complex coming apart. For orientation: IC50 means the concentration that gives 50% inhibition. Broadly, the solubility is how much of the substance goes into solution per volume.
